Results as given in the NIST ThermoML archive (doi:10.1016/j.jct.2005.03.012).

Assay: excess molar enthalpy (molar enthalpy of mixing); xn = mol fraction of the nth substance listed
Conditions: Liquid

CO [methanol] + O
Conditions | excess molar enthalpy [kcal/mol]
323.15 K, 2000 kPa, x1 = 0.2 | -0.153
323.15 K, 2000 kPa, x1 = 0.4 | -0.168
323.15 K, 2000 kPa, x1 = 0.6 | -0.142
323.15 K, 2000 kPa, x1 = 0.8 | -0.0978
323.15 K, 5000 kPa, x1 = 0.1 | -0.106
323.15 K, 5000 kPa, x1 = 0.2 | -0.154
323.15 K, 5000 kPa, x1 = 0.3 | -0.17
323.15 K, 5000 kPa, x1 = 0.4 | -0.169
323.15 K, 5000 kPa, x1 = 0.5 | -0.158
323.15 K, 5000 kPa, x1 = 0.6 | -0.142
323.15 K, 5000 kPa, x1 = 0.7 | -0.122
323.15 K, 5000 kPa, x1 = 0.8 | -0.0987
323.15 K, 5000 kPa, x1 = 0.9 | -0.055
323.15 K, 10000 kPa, x1 = 0.2 | -0.155
323.15 K, 10000 kPa, x1 = 0.4 | -0.172
323.15 K, 10000 kPa, x1 = 0.6 | -0.143
323.15 K, 10000 kPa, x1 = 0.8 | -0.0997
325.16 K, 5000 kPa, x1 = 0.1 | -0.103
325.16 K, 5000 kPa, x1 = 0.2 | -0.15
325.16 K, 5000 kPa, x1 = 0.3 | -0.165
325.16 K, 5000 kPa, x1 = 0.4 | -0.164
325.16 K, 5000 kPa, x1 = 0.5 | -0.153
325.16 K, 5000 kPa, x1 = 0.6 | -0.139
325.16 K, 5000 kPa, x1 = 0.7 | -0.119
325.16 K, 5000 kPa, x1 = 0.8 | -0.0958
325.16 K, 5000 kPa, x1 = 0.9 | -0.0548
325.16 K, 10000 kPa, x1 = 0.2 | -0.15
325.16 K, 10000 kPa, x1 = 0.4 | -0.166
325.16 K, 10000 kPa, x1 = 0.6 | -0.139
325.16 K, 10000 kPa, x1 = 0.8 | -0.0964
325.17 K, 2000 kPa, x1 = 0.2 | -0.149
325.17 K, 2000 kPa, x1 = 0.4 | -0.164
325.17 K, 2000 kPa, x1 = 0.6 | -0.138
325.17 K, 2000 kPa, x1 = 0.8 | -0.0951
325.45 K, 5000 kPa, x1 = 0.9 | -0.0537
327.47 K, 5000 kPa, x1 = 0.8 | -0.0944
327.48 K, 5000 kPa, x1 = 0.9 | -0.0536
327.62 K, 2000 kPa, x1 = 0.8 | -0.0935
327.85 K, 10000 kPa, x1 = 0.8 | -0.0948
328.61 K, 5000 kPa, x1 = 0.1 | -0.0988
328.71 K, 5000 kPa, x1 = 0.7 | -0.114
329.03 K, 2000 kPa, x1 = 0.8 | -0.0907
329.7 K, 10000 kPa, x1 = 0.6 | -0.132
329.76 K, 5000 kPa, x1 = 0.6 | -0.131
329.82 K, 2000 kPa, x1 = 0.6 | -0.131
329.82 K, 10000 kPa, x1 = 0.8 | -0.0921
330.07 K, 5000 kPa, x1 = 0.8 | -0.0915
330.39 K, 5000 kPa, x1 = 0.1 | -0.0956
330.5 K, 5000 kPa, x1 = 0.5 | -0.144
330.64 K, 2000 kPa, x1 = 0.2 | -0.139
330.67 K, 10000 kPa, x1 = 0.2 | -0.14
330.69 K, 5000 kPa, x1 = 0.2 | -0.14
330.7 K, 5000 kPa, x1 = 0.7 | -0.112
331.07 K, 2000 kPa, x1 = 0.4 | -0.151
331.07 K, 5000 kPa, x1 = 0.4 | -0.153
331.13 K, 10000 kPa, x1 = 0.4 | -0.153
331.23 K, 5000 kPa, x1 = 0.3 | -0.152
331.57 K, 10000 kPa, x1 = 0.6 | -0.128
331.61 K, 5000 kPa, x1 = 0.6 | -0.128
331.66 K, 2000 kPa, x1 = 0.6 | -0.127
332.3 K, 5000 kPa, x1 = 0.5 | -0.14
332.4 K, 10000 kPa, x1 = 0.2 | -0.135
332.42 K, 2000 kPa, x1 = 0.2 | -0.133
332.5 K, 5000 kPa, x1 = 0.2 | -0.136
332.88 K, 2000 kPa, x1 = 0.4 | -0.148
332.9 K, 5000 kPa, x1 = 0.4 | -0.148
332.91 K, 10000 kPa, x1 = 0.4 | -0.149
333.05 K, 5000 kPa, x1 = 0.3 | -0.148
348.15 K, 5000 kPa, x1 = 0.1 | -0.0704
348.15 K, 5000 kPa, x1 = 0.2 | -0.102
348.15 K, 5000 kPa, x1 = 0.3 | -0.112
348.15 K, 5000 kPa, x1 = 0.4 | -0.111
348.15 K, 5000 kPa, x1 = 0.5 | -0.107
348.15 K, 5000 kPa, x1 = 0.6 | -0.0974
348.15 K, 5000 kPa, x1 = 0.7 | -0.0869
348.15 K, 5000 kPa, x1 = 0.8 | -0.0695
348.15 K, 5000 kPa, x1 = 0.9 | -0.0424
349.68 K, 5000 kPa, x1 = 0.9 | -0.0412
350.05 K, 5000 kPa, x1 = 0.1 | -0.0674
350.05 K, 5000 kPa, x1 = 0.2 | -0.0978
350.05 K, 5000 kPa, x1 = 0.3 | -0.106
350.05 K, 5000 kPa, x1 = 0.4 | -0.106
350.05 K, 5000 kPa, x1 = 0.5 | -0.102
350.05 K, 5000 kPa, x1 = 0.6 | -0.0936
350.05 K, 5000 kPa, x1 = 0.7 | -0.0835
350.05 K, 5000 kPa, x1 = 0.8 | -0.0667
350.05 K, 5000 kPa, x1 = 0.9 | -0.0408
351.04 K, 5000 kPa, x1 = 0.8 | -0.0626
351.25 K, 5000 kPa, x1 = 0.9 | -0.0398
351.64 K, 5000 kPa, x1 = 0.1 | -0.0659
351.93 K, 5000 kPa, x1 = 0.7 | -0.0796
352.43 K, 5000 kPa, x1 = 0.6 | -0.0885
352.79 K, 5000 kPa, x1 = 0.8 | -0.0634
352.88 K, 5000 kPa, x1 = 0.5 | -0.096
353.01 K, 5000 kPa, x1 = 0.2 | -0.0922
353.16 K, 5000 kPa, x1 = 0.4 | -0.0995
353.32 K, 5000 kPa, x1 = 0.3 | -0.1
353.54 K, 5000 kPa, x1 = 0.1 | -0.0624
353.78 K, 5000 kPa, x1 = 0.7 | -0.0773
354.25 K, 5000 kPa, x1 = 0.6 | -0.0852
354.69 K, 5000 kPa, x1 = 0.5 | -0.0921
354.82 K, 5000 kPa, x1 = 0.2 | -0.0883
354.97 K, 5000 kPa, x1 = 0.4 | -0.095
